# Experiments:
# [1] = target: T1, G12D-mutant human KRAS (amino acid residues 1-188) (Homo sapiens, UniProt P01116, G12D); assay: KRAS Binding Disruption Assay (AlphaScreen; biotinylated KRpep-2d analogue or RAF1-RBD), G12D; details: KRAS G12D; geometric mean; read-out: KRAS GMean IC50 (uM) MUTATION: G12D
# T1 construct: G12D or G12C-mutant human KRAS (amino acid residues 1-188) with FLAG tag; made in house; host or cells: E. coli
# Summary of the method: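 AlphaScreen readout: signal falls as compound displaces biotinylated KRpep-2d analogue or RAF1-RBD from mutant KRAS. Both partners at 5-20 nM, 1 h binding at 25° C, then 10 μg/mL Anti-Flag acceptor and streptavidin donor beads for 1 h. IC50 by nonlinear regression of % inhibition.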
# [2] = target: T2, G12V-mutant human KRAS (amino acid residues 1-188) (Homo sapiens, UniProt P01116, G12V); assay: KRAS Binding Competition Assay (AlphaScreen; biotinylated KRpep-2d analogue), G12V; details: geometric mean, read-out: KRAS GMean IC50 (uM) MUTATION: G12V
# T2 construct: G12V-mutant human KRAS (amino acid residues 1-188) with FLAG tag was purified from E. coli; made in house; host or cells: E. coli
IC50 [1] [µM],IC50 [2] [µM],SMILES
10 to 100,100 to 1000,"CN1CCC[C@H]1COc1nc(N2[C@@H]3CC[C@H]2CN(C(=O)CC(N)=O)C3)c2ccc(-c3cc(O)cc4ccccc34)cc2n1 [P-0227, 3-((1R,5S)-8-(7-(3-hydroxynaphthalen-1-yl)-2-(((S)-1-methylpyrrolidin-2-yl)methoxy)quinazolin-4-yl)-3,8-diazabicyclo[3.2.1]octan-3-yl)-3-oxopropanamide]"
0.0001 to 10,0.0001 to 10,"CN1CCC[C@H]1COc1nc(N2C[C@H]3CC[C@@H](C2)N3C(=O)Cn2ccnc2)c2ccc(-c3cc(O)cc4ccccc34)c(F)c2n1 [P-0401, 1-((1R,5S)-3-(8-fluoro-7-(3-hydroxynaphthalen-1-yl)-2-(((S)-1-methylpyrrolidin-2-yl)methoxy)quinazolin-4-yl)-3,8-diazabicyclo[3.2.1]octan-8-yl)-2-(1H-imidazol-1-yl)ethan-1-one]"
0.0001 to 10,0.0001 to 10,"CN1CCCC1COc1nc(N2C[C@H]3CC[C@@H](C2)N3C(=O)NC2COC(C)(C)C2)c2ccc(-c3cc(O)cc4ccccc34)c(F)c2n1 (stereo partly drawn) [P-0417, (1R,5S)-N-(5,5-dimethyltetrahydrofuran-3-yl)-3-(8-fluoro-7-(3-hydroxynaphthalen-1-yl)-2-((1-methylpyrrolidin-2-yl)methoxy)quinazolin-4-yl)-3,8-diazabicyclo[3.2.1]octane-8-carboxamide]"
0.0001 to 10,10 to 100,"CN1CCC[C@H]1COc1nc(N2[C@@H]3CC[C@H]2CN(CC(=O)N2CCNCC2)C3)c2ccc(-c3cc(O)cc4ccccc34)cc2n1 [P-0269, 2-((1R,5S)-8-(7-(3-hydroxynaphthalen-1-yl)-2-(((S)-1-methylpyrrolidin-2-yl)methoxy)quinazolin-4-yl)-3,8-diazabicyclo[3.2.1]octan-3-yl)-1-(piperazin-1-yl)ethan-1-one]"
0.0001 to 10,10 to 100,"Cc1ccc2[nH]ncc2c1-c1c(F)cc2c(N3C[C@H]4CC[C@@H](C3)N4)nc(OC[C@@H]3CCCN3C)nc2c1F [P-0303, 4-((1R,5S)-3,8-diazabicyclo[3.2.1]octan-3-yl)-6,8-difluoro-7-(5-methyl-1H-indazol-4-yl)-2-(((S)-1-methylpyrrolidin-2-yl)methoxy)quinazoline]"
0.0001 to 10,10 to 100,"CN1CCC[C@H]1COc1nc(N2C[C@H]3CC[C@@H](C2)N3)c2cc(F)c(-c3c[nH]c4ccc(Cl)cc34)c(F)c2n1 [P-0310, 4-((1R,5S)-3,8-diazabicyclo[3.2.1]octan-3-yl)-7-(5-chloro-1H-indol-3-yl)-6,8-difluoro-2-(((S)-1-methylpyrrolidin-2-yl)methoxy)quinazoline]"
10 to 100,10 to 100,"Oc1cc(-c2ccc3c(N4[C@@H]5CC[C@H]4CNC5)nc(Nc4cccnc4)nc3c2)c2ccccc2c1 [P-0322, 4-(4-((1R,5S)-3,8-diazabicyclo[3.2.1]octan-8-yl)-2-(pyridin-3-ylamino)quinazolin-7-yl)naphthalen-2-ol]"
0.0001 to 10,0.0001 to 10,"CN1CCC[C@H]1COc1nc(N2CC3COCC(C2)N3)c2cc(Cl)c(-c3cc(O)cc4ccccc34)c(F)c2n1 [P-0357, 4-(4-(3-oxa-7,9-diazabicyclo[3.3.1]nonan-7-yl)-6-chloro-8-fluoro-2-(((S)-1-methylpyrrolidin-2-yl)methoxy)quinazolin-7-yl)naphthalen-2-ol]"
0.0001 to 10,0.0001 to 10,"O=C(CN1CCCS1(=O)=O)N1[C@@H]2CC[C@H]1CN(c1nc(OCC34CCCN3CCC4)nc3cc(-c4cc(O)cc5ccccc45)ccc13)C2 [P-0092, 2-(1,1-dioxidoisothiazolidin-2-yl)-1-((1R,5S)-3-(7-(3-hydroxynaphthalen-1-yl)-2-((tetrahydro-1H-pyrrolizin-7a(5H)-yl)methoxy)quinazolin-4-yl)-3,8-diazabicyclo[3.2.1]octan-8-yl)ethan-1-one]"
0.0001 to 10,100 to 1000,"CN1CCC[C@H]1COc1nc(N2C[C@H]3CC[C@@H](C2)N3c2cnccn2)c2ccc(-c3cc(O)cc4ccccc34)c(F)c2n1 [P-0469, 4-(8-fluoro-2-(((S)-1-methylpyrrolidin-2-yl)methoxy)-4-((1R,5S)-8-(pyrazin-2-yl)-3,8-diazabicyclo[3.2.1]octan-3-yl)quinazolin-7-yl)naphthalen-2-ol]"
100 to 1000,100 to 1000,"CN1CCC[C@H]1COc1nc(N2C[C@H]3CC[C@@H](C2)N3)c2ccc(-c3cc(Cl)ccc3O)cc2n1 [P-0166, 2-(4-((1R,5S)-3,8-diazabicyclo[3.2.1]octan-3-yl)-2-(((S)-1-methylpyrrolidin-2-yl)methoxy)quinazolin-7-yl)-4-chlorophenol]"
0.0001 to 10,100 to 1000,"Cc1cccc2c1N(c1ncc3c(N4C[C@H]5CC[C@@H](C4)N5)nc(OC[C@@H]4CCCN4C)nc3c1F)CC(O)C2 (stereo partly drawn) [P-0436, 1-(4-((1R,5S)-3,8-diazabicyclo[3.2.1]octan-3-yl)-8-fluoro-2-(((S)-1-methylpyrrolidin-2-yl)methoxy)pyrido[4,3-d]pyrimidin-7-yl)-8-methyl-1,2,3,4-tetrahydroquinolin-3-ol]"
10 to 100,10 to 100,"CN1CCC[C@H]1COc1nc(N2C[C@H]3CC[C@@H](C2)N3)c2ccc(-c3csc4ccccc34)cc2n1 [P-0154, 7-(benzo[b]thiophen-3-yl)-4-((1R,5S)-3,8-diazabicyclo[3.2.1]octan-3-yl)-2-(((S)-1-methylpyrrolidin-2-yl)methoxy)quinazoline]"
0.0001 to 10,0.0001 to 10,"CN(C)c1ccc(Nc2nc(N3C[C@H]4CC[C@@H](C3)N4)c3cc(Cl)c(-c4c(O)cccc4F)c(F)c3n2)cc1 [P-0391, 2-(4-((1R,5S)-3,8-diazabicyclo[3.2.1]octan-3-yl)-6-chloro-2-((4-(dimethylamino)phenyl)amino)-8-fluoroquinazolin-7-yl)-3-fluorophenol]"
100 to 1000,10 to 100,"CN1CCC[C@H]1COc1nc(N2C[C@H]3CC[C@@H](C2)N3)c2ccc(-c3ccc4c(c3)NC(=O)C4)cc2n1 [P-0174, 6-(4-((1R,5S)-3,8-diazabicyclo[3.2.1]octan-3-yl)-2-(((S)-1-methylpyrrolidin-2-yl)methoxy)quinazolin-7-yl)indolin-2-one]"
10 to 100,10 to 100,"CN1CC(=O)N(Cc2nc(N3C[C@H]4CC[C@@H](C3)N4)c3cc(Cl)c(-c4c(O)cccc4F)c(F)c3n2)C1=O [P-0460, 3-((4-((1R,5S)-3,8-diazabicyclo[3.2.1]octan-3-yl)-6-chloro-8-fluoro-7-(2-fluoro-6-hydroxyphenyl)quinazolin-2-yl)methyl)-1-methylimidazolidine-2,4-dione]"
0.0001 to 10,0.0001 to 10,"Fc1cc2c(N3C[C@H]4CC[C@@H](C3)N4)nc(OCC34CCCN3CCC4)nc2c(F)c1-c1c[nH]c2ccc(Cl)c(F)c12 [P-0441, 4-((1R,5S)-3,8-diazabicyclo[3.2.1]octan-3-yl)-7-(5-chloro-4-fluoro-1H-indol-3-yl)-6,8-difluoro-2-((tetrahydro-1H-pyrrolizin-7a(5H)-yl)methoxy)quinazoline]"
0.0001 to 10,10 to 100,"CN(C)C(C)(C)CNc1nc(N2C[C@H]3CC[C@@H](C2)N3)c2ccc(-c3cc(O)cc4ccccc34)c(F)c2n1 [P-0630, 4-(4-((1R,5S)-3,8-diazabicyclo[3.2.1]octan-3-yl)-2-((2-(dimethylamino)-2-methylpropyl)amino)-8-fluoroquinazolin-7-yl)naphthalen-2-ol]"
10 to 100,10 to 100,"CN1CCN(CCCC(=O)N2C3CCC2CN(c2nc(OC[C@@H]4CCCN4C)nc4c(F)c(-c5cc(O)cc6ccccc56)ccc24)CC3)CC1 (stereo partly drawn) [P-0247, 1-(3-(8-fluoro-7-(3-hydroxynaphthalen-1-yl)-2-(((S)-1-methylpyrrolidin-2-yl)methoxy)quinazolin-4-yl)-3,9-diazabicyclo[4.2.1]nonan-9-yl)-4-(4-methylpiperazin-1-yl)butan-1-one]"
0.0001 to 10,100 to 1000,"Oc1cc(-c2ccc3c(N4C[C@H]5CC[C@@H](C4)N5)nc(N4CC5CCC(C4)N5)nc3c2F)c2ccccc2c1 [P-0381, 4-(4-((1R,5S)-3,8-diazabicyclo[3.2.1]octan-3-yl)-2-(3,8-diazabicyclo[3.2.1]octan-3-yl)-8-fluoroquinazolin-7-yl)naphthalen-2-ol]"
0.0001 to 10,10 to 100,"Cc1c(-c2c(F)cc3c(N4C[C@H]5CC[C@@H](C4)N5)nc(OC[C@@H]4CCCN4C)nc3c2F)cccc1C(F)(F)F [P-0474, 4-((1R,5S)-3,8-diazabicyclo[3.2.1]octan-3-yl)-6,8-difluoro-7-(2-methyl-3-(trifluoromethyl)phenyl)-2-(((S)-1-methylpyrrolidin-2-yl)methoxy)quinazoline]"
10 to 100,100 to 1000,"CCN1CCC(NC(=O)N2C[C@H]3CC[C@@H](C2)N3c2nc(OC[C@@H]3CCCN3C)nc3cc(-c4cc(O)cc5ccccc45)ccc23)C1 (stereo partly drawn) [P-0215, (1R,5S)-N-(1-ethylpyrrolidin-3-yl)-8-(7-(3-hydroxynaphthalen-1-yl)-2-(((S)-1-methylpyrrolidin-2-yl)methoxy)quinazolin-4-yl)-3,8-diazabicyclo[3.2.1]octane-3-carboxamide]"
0.0001 to 10,0.0001 to 10,"CNC(=O)CN1[C@@H]2CC[C@H]1CN(c1nc(OCC34CCCN3CCC4)nc3c(F)c(-c4cc(O)cc5ccccc45)ccc13)C2 [P-0627, 2-((1R,5S)-3-(8-fluoro-7-(3-hydroxynaphthalen-1-yl)-2-((tetrahydro-1H-pyrrolizin-7a(5H)-yl)methoxy)quinazolin-4-yl)-3,8-diazabicyclo[3.2.1]octan-8-yl)-N-methylacetamide]"

# — patent publication US20230081426A1, “COMPOUNDS AND METHODS FOR KRAS MODULATION AND INDICATIONS THEREFOR” (Plexxikon Inc., priority 2020, published 2023)
